The target of test [1] is T1, Human DNA polymerase γ (Homo sapiens, UniProt P54098).
T1 construct: made in house
T1 sequence (P54098 1-1239): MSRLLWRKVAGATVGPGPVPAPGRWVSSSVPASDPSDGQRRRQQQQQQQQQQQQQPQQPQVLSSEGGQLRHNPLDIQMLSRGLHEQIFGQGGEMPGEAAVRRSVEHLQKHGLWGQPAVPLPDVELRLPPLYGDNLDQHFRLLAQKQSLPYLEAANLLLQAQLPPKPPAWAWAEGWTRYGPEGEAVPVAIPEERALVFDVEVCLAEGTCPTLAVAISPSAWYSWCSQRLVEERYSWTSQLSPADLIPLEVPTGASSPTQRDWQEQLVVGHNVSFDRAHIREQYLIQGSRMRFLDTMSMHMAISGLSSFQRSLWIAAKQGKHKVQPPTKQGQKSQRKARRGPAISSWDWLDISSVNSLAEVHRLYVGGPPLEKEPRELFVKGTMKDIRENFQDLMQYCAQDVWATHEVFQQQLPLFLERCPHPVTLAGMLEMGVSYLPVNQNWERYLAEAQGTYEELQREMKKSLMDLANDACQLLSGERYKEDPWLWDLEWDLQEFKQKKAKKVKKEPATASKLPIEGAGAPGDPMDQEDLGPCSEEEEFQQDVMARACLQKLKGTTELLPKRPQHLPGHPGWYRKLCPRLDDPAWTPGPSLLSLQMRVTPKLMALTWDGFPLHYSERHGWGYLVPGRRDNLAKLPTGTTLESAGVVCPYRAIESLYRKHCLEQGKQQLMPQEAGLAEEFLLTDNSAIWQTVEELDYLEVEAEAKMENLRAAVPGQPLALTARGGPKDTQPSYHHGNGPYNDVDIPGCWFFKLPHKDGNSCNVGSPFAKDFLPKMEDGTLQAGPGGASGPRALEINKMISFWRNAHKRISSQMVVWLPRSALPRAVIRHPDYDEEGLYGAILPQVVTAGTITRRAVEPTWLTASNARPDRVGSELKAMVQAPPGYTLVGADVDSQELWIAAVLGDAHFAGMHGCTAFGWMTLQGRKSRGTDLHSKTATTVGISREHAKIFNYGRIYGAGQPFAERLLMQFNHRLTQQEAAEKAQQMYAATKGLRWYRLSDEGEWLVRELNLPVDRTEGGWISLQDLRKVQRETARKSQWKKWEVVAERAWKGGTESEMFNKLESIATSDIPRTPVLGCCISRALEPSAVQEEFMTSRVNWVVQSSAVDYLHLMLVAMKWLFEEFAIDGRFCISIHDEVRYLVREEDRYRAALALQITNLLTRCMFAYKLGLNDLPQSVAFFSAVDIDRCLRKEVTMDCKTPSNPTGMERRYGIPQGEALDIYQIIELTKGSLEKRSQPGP
More on the design: method as in PMID 18312466, PMID 18698499, PMID 20030669, PMID 20881898. Particulars: earlier work of the authors; cited from earlier work.

For test [2], the system named is TPA-induced edema on mouse ear. Kind of test: TPA-induced mouse ear inflammatory test. In kind it is in vivo. Particulars: 250 or 500 μg applied to ear 30 min before TPA (0.5 μg); edema evaluated after 7 h; Figure 3. How it is done: All animal studies were performed according to the guidelines outlined in the “Care and Use of Laboratory Animals” of Kobe University. The animals were anesthetized with pentobarbital before undergoing cervical dislocation. Female 8-week-old C57BL/6 mice that had been bred in-house with free access to food and water were used for all experiments. All of the mice were maintained under a 12-h light/dark cycle and housed at a room temperature of 25 °C.
The mouse inflammatory test was performed according to Gschwendt’s method. In brief, an acetone solution of the VK2 and VK3 intermediates (250 or 500 μg in 20 μL) or 20 μL of acetone as a vehicle control was applied to the inner part of the mouse ear. Thirty minutes after the test compound was applied, a TPA solution (0.5 μg/20 μL of acetone) was applied to the same part of the ear. To the other ear of the same mouse, methanol, followed by TPA solution, was applied as a control. After 7 h, a disk (6 mm diameter) was obtained from the ear and weighed. The inhibitory effect (IE) is presented as a ratio of the increase in weight of the ear disks: IE=[(TPA only)−(tested compound plus TPA)]/[(TPA only)−(vehicle)]×100

The target of test [3] is T1, Human DNA polymerase γ. Kind of test: DNA polymerase activity assay, human pol γ. Format: biochemical. Particulars: 50 μM of each compound; Figure 2. The protocol: Pols from mammals, a fish (cherry salmon), an insect (fruit fly) and a plant (cauliflower) were purified, and prokaryotic pols and other DNA metabolic enzymes, such as T7 RNA polymerase, T4 polynucleotide kinase and bovine deoxyribonuclease I, were purchased as described in our previous report. The activities of all pols and other DNA metabolic enzymes were measured as described in previous reports.
The components of the pol assay were poly(dA)/oligo(dT)18 and dTTP as the DNA template-primer and 2′-deoxyribonucleoside 5′-triphosphate (dNTP) substrate, respectively. VK2, VK3, and their synthesized derivatives (i.e., MK-3, MK-2 and MK-1) were dissolved in dimethyl sulfoxide (DMSO) at various concentrations and sonicated for 30 s. The sonicated samples (4 μL) were mixed with 16 μL of each pol enzyme (final amount, 0.05 units) in 50 mM Tris-HCl (pH 7.5) containing 1 mM dithiothreitol, 50% glycerol and 0.1 mM EDTA, and kept at 0 °C for 10 min. These inhibitor–enzyme mixtures (8 μL) were added to 16 μL of each standard enzyme reaction mixture (50 mM Tris-HCl [pH 7.5], 1 mM dithiothreitol, 1 mM MgCl2, 15% glycerol, 10 μM poly(dA)/oligo(dT)18 and 10 μM [^3H]-dTTP), and incubation was carried out at 37 °C for 60 min, except for Taq pol, which was incubated at 74 °C for 60 min. Activity without the inhibitor was considered to be 100%, and the activity remaining at each concentration of inhibitor was determined relative to this value. One unit of pol activity was defined as the amount of enzyme that catalyzed the incorporation of 1 nmol dNTP (dTTP) into the synthetic DNA template-primer (poly(dA)/oligo(dT)18, A/T = 2/1) in 60 min at 37 °C under normal reaction conditions for each enzyme (scintillation counts: approximately 1 pmol of incorporated radioactive nucleotides = 100 cpm).

For test [4], the system named is LPS-induced production of TNF-α in RAW264.7 cells. Kind of test: LPS-induced TNF-α production in mouse macrophages (ELISA). In kind it is cell-based. Conditions: 10 and 50 μM tested, concentration not specified, Figure 4. The protocol: A mouse macrophage cell line, RAW264.7, was obtained from American Type Culture Collection (ATCC) (Manassas, VA, U.S.). The cells were cultured in Eagle’s Minimum Essential Medium (MEM) supplemented with 4.5 g of glucose per liter plus 10% fetal calf serum, 5 mM L-glutamine, 50 units/mL penicillin and 50 units/mL streptomycin. The cells were cultured at 37 °C in standard medium in a humidified atmosphere of 5% CO2–95% air.
RAW264.7 cells were placed in a 12-well plate at 5 × 10^4 cells/well and incubated for 24 h. The cells were pretreated with the VK2 and VK3 intermediates (final concentrations of 10 and 50 μM) for 30 min before the addition of 100 ng/mL of LPS. After stimulation with LPS for 24 h, the cell culture medium was collected to measure the amount of TNF-α secreted. The concentration of TNF-α in the culture medium was quantified by using a commercially available enzyme-linked immunosorbent assay (ELISA) development system (Bay Bioscience Co., Ltd., Kobe, Japan) in accordance with the manufacturer’s protocol.
(In general: ELISA stands for enzyme-linked immunosorbent assay.)

The target of the next test is T2, Human DNA polymerase λ (Homo sapiens, UniProt Q9UGP5).
T2 construct: made in house
T2 sequence (Q9UGP5 1-575): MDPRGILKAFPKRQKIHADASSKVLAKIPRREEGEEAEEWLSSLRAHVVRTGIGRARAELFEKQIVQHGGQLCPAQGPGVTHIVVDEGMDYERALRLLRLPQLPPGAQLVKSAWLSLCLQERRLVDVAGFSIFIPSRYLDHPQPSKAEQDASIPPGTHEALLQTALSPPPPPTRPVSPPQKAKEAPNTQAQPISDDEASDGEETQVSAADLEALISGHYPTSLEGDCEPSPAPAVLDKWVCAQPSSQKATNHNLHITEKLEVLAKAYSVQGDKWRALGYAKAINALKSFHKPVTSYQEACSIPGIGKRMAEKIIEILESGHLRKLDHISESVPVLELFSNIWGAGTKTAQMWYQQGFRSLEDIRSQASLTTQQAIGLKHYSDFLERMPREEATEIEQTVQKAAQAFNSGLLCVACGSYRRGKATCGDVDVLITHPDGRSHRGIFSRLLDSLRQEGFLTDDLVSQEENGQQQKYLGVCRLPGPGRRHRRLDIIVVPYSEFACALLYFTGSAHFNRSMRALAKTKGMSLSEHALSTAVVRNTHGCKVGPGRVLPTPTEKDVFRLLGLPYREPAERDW
On the set-up: method as in PMID 19502749, PMID 14599551. Particulars: reported previously; cited from earlier work.

Consider 3 molecules from PMC3083694, “Effects of Intermediates between Vitamins K2 and K3 on Mammalian DNA Polymerase Inhibition and Anti-Inflammatory Activity” (International Journal of Molecular Sciences, 2011).

Turning to `CC1=C(C/C=C(\C)CCC[C@H](C)CCC[C@H](C)CCCC(C)C)C(=O)c2ccccc2C1=O` [VK1, phylloquinone], on Human DNA polymerase γ [1], the “Inhibitor of human pol γ” value is “not”.
As for `CC1=CC(=O)c2ccccc2C1=O` [VK3, menadione, reference compound], at Human DNA polymerase γ [1], the “Inhibitor of human pol γ” value was “potent and specific inhibitor”. In addition, in test [2], the “Anti-inflammatory activity toward TPA-induced edema on mouse ear” value is given as “weak effect”. Also, the “Inhibitory effect on human pol γ activity” value on Human DNA polymerase γ [3] was “selectively inhibited pol γ”. Further, the “Inhibitory effect on LPS-stimulated TNF-α production” value in test [4] is on record as “moderate inhibitory effect”.
Consider `COc1cc(/C=C/C(=O)CC(=O)/C=C/c2ccc(O)c(OC)c2)ccc1O` [curcumin], for which the “Inhibitor of pol λ (selectivity)” value at Human DNA polymerase λ was “pol-λ-specific inhibitor”.
